The experiment deals with CD2F1 mice, ip Colon 26 adenocarcinoma, median survival T/C. Nature of the experiment: NCI In Vivo Anticancer Drug Screen. Data for tumor model Colon 26 Adenocarcinoma (intraperitoneal) in CD2F1 (CDF1) mice. To be noted: endpoint: median survival time, higher = longer survival. The procedure: The antitumor activity of compounds was measured in mice bearing transplantable tumors. Survival or tumor size were measured and the results are expressed as the measurement made in the treated group (T) divided by the measurement made in the vehicle treated control group (C). The tumor model used in this assay is Colon 26 Adenocarcinoma (intraperitoneal) in CD2F1 (CDF1) mice

Where [1] appears, read: dose: 12.5 mg/kg/injection, schedule: Q04DX003 (ip), vehicle: saline with Tween-80.
The mark [2] stands for this setting: dose: 25.0 mg/kg/injection, schedule: Q04DX003 (ip), vehicle: saline with Tween-80.
Where [3] appears, read: dose: 50.0 mg/kg/injection, schedule: Q04DX003 (ip), vehicle: saline with Tween-80.
Where [4] appears, read: dose: 100.0 mg/kg/injection, schedule: Q04DX003 (ip), vehicle: saline with Tween-80.
[5] abbreviates: dose: 200.0 mg/kg/injection, schedule: Q04DX003 (ip), vehicle: saline with Tween-80.

Toxic doses and inconclusive results are not listed. *1 amine or outer side, *2 acyl side, *3 side chain or, on linkers, in order; H or OH if unused. Where a SMILES comes first, the peptide text is derived from it. Bridges are numbered along the chain shown (N, C = ends). Roman numbers before positions name the chains, in order. [ ]: non-standard residue; d: D form. Actinocin(1to9) = Cc1c2oc3c(C)ccc(C(=O)[*:2])c3nc-2c(C(=O)[*:1])c(N)c1=O; NMeV = CN[CH](C(=O)O)C(C)C; Aze = O=C(O)[CH]1CCN1; Sar = CNCC(=O)O

T/C data for ten compounds are collected here from PubChem BioAssay AID210 (DTP/NCI, 2004).

In the case of `CO[C@H]1C[C@@H]2CC[C@@H](C)[C@@](O)(O2)C(=O)C(=O)N2CCCC[C@H]2C(=O)O[C@H]([C@H](C)C[C@@H]2CC[C@@H](O)[C@H](OC)C2)CC(=O)[C@H](C)C=C(C)[C@@H](O)[C@@H](OC)C(=O)[C@H](C)C[C@H](C)/C=C/C=C/C=C1C`, the T/C is, setting by setting: under setting [1], 104 % of control; under setting [2], 118 % of control; under setting [3], 116 % of control; under setting [4], 105 % of control; under setting [5], 96 % of control.
On to `CN(C)CCCNc1c2ccccc2nc2cccc([N+](=O)[O-])c12`, for which the T/C (dose: 0.02 mg/kg/injection, schedule: Q07DX002 (iv), vehicle: saline with Tween-80) is 105 % of control; the T/C (dose: 0.04 mg/kg/injection, schedule: Q07DX002 (iv), vehicle: saline with Tween-80) was 107 % of control; the T/C (dose: 0.07 mg/kg/injection, schedule: Q07DX002 (iv), vehicle: saline with Tween-80) is 108 % of control; the T/C (dose: 0.12 mg/kg/injection, schedule: Q07DX002 (iv), vehicle: saline with Tween-80) is 106 % of control; the T/C (dose: 0.3 mg/kg/injection, schedule: Q07DX002 (iv), vehicle: saline with Tween-80) is 101 % of control; the T/C (dose: 0.46 mg/kg/injection, schedule: Q07DX002 (iv), vehicle: saline with Tween-80) is 100 % of control.
For `[I][Hg][CH2]C1OCCOC1[CH2][Hg][I]` (stereo not given), the T/C by setting is: (dose: 25.0 mg/kg/injection, schedule: Q04DX003 (ip), vehicle: Klucel (hydroxypropylcellulose) (HPC)) 103 % of control; (dose: 50.0 mg/kg/injection, schedule: Q04DX003 (ip), vehicle: Klucel (hydroxypropylcellulose) (HPC)) 100 % of control.
For the compound `CN(C)C=O`, the T/C was 93 % of control (dose: 100.0 mg/kg/injection, schedule: Q04DX002 (ip), vehicle: saline); 90 % of control (dose: 400.0 mg/kg/injection, schedule: Q04DX002 (ip), vehicle: saline); 168 % of control (dose: 800.0 mg/kg/injection, schedule: Q04DX002 (ip), vehicle: saline); 93 % of control (dose: 1600.0 mg/kg/injection, schedule: Q04DX002 (ip), vehicle: saline).
With `CN1C(=O)NC(c2ccc(Cl)cc2)(c2ccc(Cl)cc2)C1=O`, the T/C is, setting by setting: (dose: 12.5 mg/kg/injection, schedule: Q04DX002 (ip), vehicle: distilled water + Tween-80) 106 % of control; (dose: 12.5 mg/kg/injection, schedule: Q04DX002 (ip), vehicle: saline with Tween-80) 105 % of control; (dose: 25.0 mg/kg/injection, schedule: Q04DX002 (ip), vehicle: distilled water + Tween-80) 100 % of control; (dose: 25.0 mg/kg/injection, schedule: Q04DX002 (ip), vehicle: saline with Tween-80) 111 % of control; (dose: 50.0 mg/kg/injection, schedule: Q04DX002 (ip), vehicle: distilled water + Tween-80) 114 % of control; (dose: 50.0 mg/kg/injection, schedule: Q04DX002 (ip), vehicle: saline with Tween-80) 97 % of control. Also, the T/C reads like this: (dose: 100.0 mg/kg/injection, schedule: Q04DX002 (ip), vehicle: saline with Tween-80) 102 % of control; (dose: 200.0 mg/kg/injection, schedule: Q04DX002 (ip), vehicle: saline with Tween-80) 91 % of control; (dose: 400.0 mg/kg/injection, schedule: Q04DX002 (ip), vehicle: saline with Tween-80) 91 % of control.
For the compound `Cc1c(N)nc([C@H](CC(N)=O)NC[C@H](N)C(N)=O)nc1C(=O)N[C@H](C(=O)N[C@H](C)[C@@H](O)[C@H](C)C(=O)N[C@H](C(=O)NCCc1nc(-c2nc(C(=O)NCCC[S+](C)C)cs2)cs1)[C@@H](C)O)C(OC1OC(CO)C(O)C(O)C1OC1OC(CO)C(O)C(OC(N)=O)C1O)c1cnc[nH]1` (stereo not given in full), the T/C (dose: 1.0 mg/kg/injection, schedule: Q01DX009 (ip), vehicle: saline) was 115 % of control; the T/C (dose: 2.0 mg/kg/injection, schedule: Q01DX009 (ip), vehicle: saline) is 111 % of control; the T/C (dose: 4.0 mg/kg/injection, schedule: Q01DX009 (ip), vehicle: saline) is 107 % of control; the T/C (dose: 8.0 mg/kg/injection, schedule: Q01DX009 (ip), vehicle: saline) was 111 % of control; the T/C (dose: 16.0 mg/kg/injection, schedule: Q01DX009 (ip), vehicle: saline) is 111 % of control.
As for `Cc1c2oc3c(C)ccc(C(=O)NC4C(=O)NC(C(C)C)C(=O)N5CCCC5C(=O)N(C)CC(=O)N(C)C(C(C)C)C(=O)OC4C)c3nc-2c(C(=O)NC2C(=O)NC(C(C)C)C(=O)N3CCC3C(=O)N(C)CC(=O)N(C)C(C(C)C)C(=O)OC2C)c(N)c1=O` (stereo not given) (I: TV[Aze][Sar][NMeV] / II: TVP[Sar][NMeV]; ester I:1-I:C, II:1-II:C; linker I:N-II:N via Actinocin(1to9); configuration not given here), the T/C runs as follows: (dose: 0.08 mg/kg/injection, schedule: Q04DX003 (ip), vehicle: saline + alcohol) 100 % of control; (dose: 0.14 mg/kg/injection, schedule: Q04DX003 (ip), vehicle: saline + alcohol) 123 % of control; (dose: 0.23 mg/kg/injection, schedule: Q04DX003 (ip), vehicle: saline + alcohol) 119 % of control; (dose: 0.65 mg/kg/injection, schedule: Q04DX003 (ip), vehicle: saline + alcohol) 151 % of control; (dose: 270.0 micrograms/kg/injection, schedule: Q04DX003 (ip), vehicle: saline + alcohol) 108 % of control; (dose: 375.0 micrograms/kg/injection, schedule: Q01DX001 (ip), vehicle: saline + alcohol) 119 % of control. Moreover, the T/C by setting is: (dose: 450.0 micrograms/kg/injection, schedule: Q04DX003 (ip), vehicle: saline + alcohol) 151 % of control; (dose: 750.0 micrograms/kg/injection, schedule: Q01DX001 (ip), vehicle: saline + alcohol) 102 % of control; (dose: 750.0 micrograms/kg/injection, schedule: Q04DX003 (ip), vehicle: saline + alcohol) 157 % of control.
Take `Nc1ncnc2c1ncn2C1OC(CO)C(O)C1O` (stereo not given): the T/C was 101 % of control (dose: 50.0 mg/kg/injection, schedule: Q04DX002 (ip), vehicle: suspension in saline); 90 % of control (dose: 64.0 mg/kg/injection, schedule: Q04DX002 (ip), vehicle: Klucel (hydroxypropylcellulose) (HPC)); 113 % of control (dose: 100.0 mg/kg/injection, schedule: Q04DX002 (ip), vehicle: suspension in saline); 93 % of control (dose: 128.0 mg/kg/injection, schedule: Q04DX002 (ip), vehicle: Klucel (hydroxypropylcellulose) (HPC)); 108 % of control (dose: 200.0 mg/kg/injection, schedule: Q04DX002 (ip), vehicle: suspension in saline); 91 % of control (dose: 256.0 mg/kg/injection, schedule: Q04DX002 (ip), vehicle: Klucel (hydroxypropylcellulose) (HPC)). Moreover, the T/C is 107 % of control (dose: 400.0 mg/kg/injection, schedule: Q04DX002 (ip), vehicle: suspension in saline); 122 % of control (dose: 800.0 mg/kg/injection, schedule: Q04DX002 (ip), vehicle: suspension in saline); 98 % of control (dose: 1024.0 mg/kg/injection, schedule: Q04DX002 (ip), vehicle: Klucel (hydroxypropylcellulose) (HPC)).
For the compound `Nc1nc2c(ncn2C2OC(CO)C(O)C2N)c(=O)[nH]1` (stereo not given), the T/C is, setting by setting: (dose: 3.0 mg/kg/injection, schedule: Q04DX002 (ip), vehicle: saline with Tween-80) 95 % of control; (dose: 6.0 mg/kg/injection, schedule: Q04DX002 (ip), vehicle: saline with Tween-80) 105 % of control; (dose: 12.0 mg/kg/injection, schedule: Q04DX002 (ip), vehicle: saline with Tween-80) 88 % of control; (dose: 24.0 mg/kg/injection, schedule: Q04DX002 (ip), vehicle: saline with Tween-80) 88 % of control; (dose: 48.0 mg/kg/injection, schedule: Q04DX002 (ip), vehicle: saline with Tween-80) 96 % of control; (dose: 96.0 mg/kg/injection, schedule: Q04DX002 (ip), vehicle: saline with Tween-80) 93 % of control.
With `CCSC(=O)N1c2ccc(OC)cc2C=CC1C#N` (stereo not given), the T/C is 106 % of control under setting [1]; 104 % of control under setting [2]; 110 % of control under setting [3]; 107 % of control under setting [4]; 110 % of control (dose: 175.0 mg/kg/injection, schedule: Q04DX002 (ip), vehicle: saline with Tween-80); 109 % of control under setting [5]. Further, the T/C by setting is: (dose: 350.0 mg/kg/injection, schedule: Q04DX002 (ip), vehicle: saline with Tween-80) 124 % of control; (dose: 400.0 mg/kg/injection, schedule: Q04DX003 (ip), vehicle: saline with Tween-80) 115 % of control; (dose: 700.0 mg/kg/injection, schedule: Q04DX002 (ip), vehicle: saline with Tween-80) 100 % of control; (dose: 1400.0 mg/kg/injection, schedule: Q04DX002 (ip), vehicle: saline with Tween-80) 98 % of control.
